Measured values reported in patent publication US20260297081A1, “COMPOUNDS AND METHODS OF TREATING CANCERS” (Cullgen Inc., priority 2023, published 2026).

These compounds were tested on Calu-1 cells (assay: Anti-proliferation (viability) of NSCLC Calu-1 cells, 3 days (Table 7, FIG. 2B)). Conditions: Homo sapiens, 72 h; Calu-1 cells, 3 days, 10-point serial dilution; read-out: GI IC50 in Calu-1.
Format: cell-based
Procedure: To evaluate anti-proliferation activities of heterobifunctional compounds, NSCLC Calu-1 or ER+ breast cancer T47D cells were treated with selected heterobifunctional compounds following a 10-point serial dilution for 3 or 6 days, respectively.
To verify that heterobifunctional compound-mediated degradation is dependent on the binding to CDK4-cyclin D complex, a negative control compound, CPD-143, which is derived from active heterobifunctional compound CPD-10 was designed. CPD-143 bears the same DDB1 ligand and linker as CPD-10 but with a modified warhead to impair the binding of the control compound to CDK4.
In the case of `CC(=O)c1c(C)c2cnc(Nc3ccc(CN4CCN(C5CCN(C(=O)C6CCC(Nc7nc(NC(C)C)ccc7C(=O)Nc7ccc(N(C)C)nn7)C6)C5)CC4)cn3)nc2n(C2CCCC2)c1=O` (stereo not shown) [CPD-511, 2-((3-(3-(4-((6-((6-acetyl-8-cyclopentyl-5-methyl-7-oxo-7,8-dihydropyrido[2,3-d]pyrimidin-2-yl)amino)pyridin-3-yl)methyl)piperazin-1-yl)pyrrolidine-1-carbonyl)cyclopentyl)amino)-N-(6-(dimethylamino)pyridazin-3-yl)-6-(isopropylamino)nicotinamide], the IC50 is reported as ≥ 50 nM. `CC(=O)c1c(C)c2cnc(Nc3ccc(CN4CCN(C5CCN(C(=O)[C@H]6CC[C@H](Nc7nc(NC(C)C)ccc7C(=O)Nc7ccc(N(C)C)nn7)CC6)C5)CC4)cn3)nc2n(C2CCCC2)c1=O` (stereo partly shown) [CPD-512, 2-((4-(3-(4-((6-((6-acetyl-8-cyclopentyl-5-methyl-7-oxo-7,8-dihydropyrido[2,3-d]pyrimidin-2-yl)amino)pyridin-3-yl)methyl)piperazin-1-yl)pyrrolidine-1-carbonyl)cyclohexyl)amino)-N-(6-(dimethylamino)pyridazin-3-yl)-6-(isopropylamino)nicotinamide] showed an IC50 of 10 to 50 nM. `CNc1ccc(C(=O)Nc2ccc(N(C)C)nn2)c(NC2CN(CC(=O)N3CCN(Cc4ccc(Nc5ncc6c(C)c(C(C)=O)c(=O)n(C7CCCC7)c6n5)nc4)CC3)C2)n1` [CPD-513, 2-((1-(2-(4-((6-((6-acetyl-8-cyclopentyl-5-methyl-7-oxo-7,8-dihydropyrido[2,3-d]pyrimidin-2-yl)amino)pyridin-3-yl)methyl)piperazin-1-yl)-2-oxoethyl)azetidin-3-yl)amino)-N-(6-(dimethylamino)pyridazin-3-yl)-6-(methylamino)nicotinamide] was tested, and the IC50 was ≥ 50 nM. `CC(=O)c1c(C)c2cnc(Nc3ccc(N4CCN(CC(=O)NC5CC6(C5)CC(Nc5nc(NC(C)C)ccc5C(=O)Nc5cc(C)n(C(F)(F)F)n5)C6)CC4)cn3)nc2n(C2CCCC2)c1=O` (stereo not shown) [CPD-514, 2-((6-(2-(4-(6-((6-acetyl-8-cyclopentyl-5-methyl-7-oxo-7,8-dihydropyrido[2,3-d]pyrimidin-2-yl)amino)pyridin-3-yl)piperazin-1-yl)acetamido)spiro[3.3]heptan-2-yl)amino)-6-(isopropylamino)-N-(5-methyl-1-(trifluoromethyl)-1H-pyrazol-3-yl)nicotinamide] was tested, and the IC50 was ≥ 50 nM. `CC(=O)c1c(C)c2cnc(Nc3ccc(N4CCN(C5CCN(C(=O)C6(C)CCC(Nc7nc(NC(C)C)ccc7C(=O)Nc7ccc(N(C)C)nn7)CC6)C5)CC4)cn3)nc2n(C2CCCC2)c1=O` (stereo not shown) [CPD-516, 2-((4-(3-(4-(6-((6-acetyl-8-cyclopentyl-5-methyl-7-oxo-7,8-dihydropyrido[2,3-d]pyrimidin-2-yl)amino)pyridin-3-yl)piperazin-1-yl)pyrrolidine-1-carbonyl)-4-methylcyclohexyl)amino)-N-(6-(dimethylamino)pyridazin-3-yl)-6-(isopropylamino)nicotinamide] was tested, and the IC50 was 10 to 50 nM. With `CC(=O)c1c(C)c2cnc(Nc3ccc(N4CCC(N(C)C(=O)CN5CC(Nc6nc(NC(C)C)ccc6C(=O)Nc6ccc(N(C)C)nn6)C5)CC4)cn3)nc2n(C2CCCC2)c1=O` [CPD-517, 2-((1-(2-((1-(6-((6-acetyl-8-cyclopentyl-5-methyl-7-oxo-7,8-dihydropyrido[2,3-d]pyrimidin-2-yl)amino)pyridin-3-yl)piperidin-4-yl)(methyl)amino)-2-oxoethyl)azetidin-3-yl)amino)-N-(6-(dimethylamino)pyridazin-3-yl)-6-(isopropylamino)nicotinamide] the IC50 was ≥ 50 nM. With `CC(=O)c1c(C)c2cnc(Nc3ccc(N4CCN(C5CCN(C(=O)CN6CC7(CC(Nc8nc(NC(C)C)ccc8C(=O)Nc8ccc(N(C)C)nn8)C7)C6)C5)CC4)cn3)nc2n(C2CCCC2)c1=O` (stereo not shown) [CPD-518, 2-((2-(2-(3-(4-(6-((6-acetyl-8-cyclopentyl-5-methyl-7-oxo-7,8-dihydropyrido[2,3-d]pyrimidin-2-yl)amino)pyridin-3-yl)piperazin-1-yl)pyrrolidin-1-yl)-2-oxoethyl)-2-azaspiro[3.3]heptan-6-yl)amino)-N-(6-(dimethylamino)pyridazin-3-yl)-6-(isopropylamino)nicotinamide] the IC50 was ≤ 10 nM.
